Publication PMC5990611, “An in Vitro Assay of hERG K^+ Channel Potency for a New EGFR Inhibitor FHND004” (Frontiers in Pharmacology, 2018)

Assay: In vivo pharmacokinetic assay in male SD rats
Conditions: rat, serum, data not shown, read-out: maximum serum concentration (Cmax)

C=CC(=O)Nc1cc(Nc2nccc(-c3cn(C)c4ccccc34)n2)c(OC)cc1N(C)CCN(C)C [AZD9291]
Cmax: 220 nM
